From article PMC9045483 (RSC Advances, 2022)

How the values were obtained:
HCT116 = assay: In vitro cytotoxic activity, MTT colorimetric assay, HCT116; type: cell-based; conditions: Homo sapiens, HCT-116, read-out: IC50 HCT116
MCF-7 = assay: In vitro cytotoxic activity, MTT colorimetric assay, MCF-7; type: cell-based; conditions: Homo sapiens, MCF7, read-out: IC50 MCF-7
HepG2 = assay: In vitro cytotoxic activity, MTT colorimetric assay, HepG2; type: cell-based; conditions: Homo sapiens, HepG2, read-out: IC50 HepG2
A549 = assay: In vitro cytotoxic activity, MTT colorimetric assay, A549; type: cell-based; conditions: Homo sapiens, A549, read-out: IC50 A549
EGFR^T790M = EGFR^T790M (Homo sapiens, UniProt P00533, T790M); assay: EGFR^T790M kinase inhibitory assay; type: biochemical
Sequence of EGFR^T790M (P00533 25-1210 T790M): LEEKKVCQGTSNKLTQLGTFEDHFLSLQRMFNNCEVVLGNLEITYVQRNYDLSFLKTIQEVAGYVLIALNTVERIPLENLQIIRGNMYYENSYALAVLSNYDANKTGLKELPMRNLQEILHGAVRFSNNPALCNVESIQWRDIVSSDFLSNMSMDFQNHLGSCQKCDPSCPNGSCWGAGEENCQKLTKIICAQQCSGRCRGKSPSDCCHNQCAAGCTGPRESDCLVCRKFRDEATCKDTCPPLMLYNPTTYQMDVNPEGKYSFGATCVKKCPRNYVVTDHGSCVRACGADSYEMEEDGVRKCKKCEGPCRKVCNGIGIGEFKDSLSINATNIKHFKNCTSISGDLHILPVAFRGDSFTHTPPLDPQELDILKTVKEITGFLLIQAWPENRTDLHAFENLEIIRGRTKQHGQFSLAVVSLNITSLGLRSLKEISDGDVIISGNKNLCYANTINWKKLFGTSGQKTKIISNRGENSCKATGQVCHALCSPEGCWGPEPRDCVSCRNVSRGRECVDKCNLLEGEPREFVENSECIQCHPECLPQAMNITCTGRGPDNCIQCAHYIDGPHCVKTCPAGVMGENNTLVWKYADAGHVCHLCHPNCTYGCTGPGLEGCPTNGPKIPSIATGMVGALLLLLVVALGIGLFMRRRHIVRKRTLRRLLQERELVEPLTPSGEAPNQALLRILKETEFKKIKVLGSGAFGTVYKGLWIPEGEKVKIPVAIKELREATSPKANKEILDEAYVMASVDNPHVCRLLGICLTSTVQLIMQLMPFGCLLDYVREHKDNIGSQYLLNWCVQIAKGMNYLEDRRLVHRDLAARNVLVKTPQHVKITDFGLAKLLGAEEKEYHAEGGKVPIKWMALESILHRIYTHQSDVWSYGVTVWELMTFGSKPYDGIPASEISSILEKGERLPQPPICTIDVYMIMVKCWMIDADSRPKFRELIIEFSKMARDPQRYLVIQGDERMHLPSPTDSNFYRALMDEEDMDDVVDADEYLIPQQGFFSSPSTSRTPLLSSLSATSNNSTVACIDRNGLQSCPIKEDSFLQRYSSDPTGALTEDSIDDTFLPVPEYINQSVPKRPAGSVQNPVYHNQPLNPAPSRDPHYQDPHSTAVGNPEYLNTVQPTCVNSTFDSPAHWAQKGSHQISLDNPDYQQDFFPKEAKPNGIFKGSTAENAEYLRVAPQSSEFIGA

VEGFR-2 = VEGFR-2 (Homo sapiens, UniProt P35968); assay: biochemical
Sequence of VEGFR-2 (P35968 20-1356): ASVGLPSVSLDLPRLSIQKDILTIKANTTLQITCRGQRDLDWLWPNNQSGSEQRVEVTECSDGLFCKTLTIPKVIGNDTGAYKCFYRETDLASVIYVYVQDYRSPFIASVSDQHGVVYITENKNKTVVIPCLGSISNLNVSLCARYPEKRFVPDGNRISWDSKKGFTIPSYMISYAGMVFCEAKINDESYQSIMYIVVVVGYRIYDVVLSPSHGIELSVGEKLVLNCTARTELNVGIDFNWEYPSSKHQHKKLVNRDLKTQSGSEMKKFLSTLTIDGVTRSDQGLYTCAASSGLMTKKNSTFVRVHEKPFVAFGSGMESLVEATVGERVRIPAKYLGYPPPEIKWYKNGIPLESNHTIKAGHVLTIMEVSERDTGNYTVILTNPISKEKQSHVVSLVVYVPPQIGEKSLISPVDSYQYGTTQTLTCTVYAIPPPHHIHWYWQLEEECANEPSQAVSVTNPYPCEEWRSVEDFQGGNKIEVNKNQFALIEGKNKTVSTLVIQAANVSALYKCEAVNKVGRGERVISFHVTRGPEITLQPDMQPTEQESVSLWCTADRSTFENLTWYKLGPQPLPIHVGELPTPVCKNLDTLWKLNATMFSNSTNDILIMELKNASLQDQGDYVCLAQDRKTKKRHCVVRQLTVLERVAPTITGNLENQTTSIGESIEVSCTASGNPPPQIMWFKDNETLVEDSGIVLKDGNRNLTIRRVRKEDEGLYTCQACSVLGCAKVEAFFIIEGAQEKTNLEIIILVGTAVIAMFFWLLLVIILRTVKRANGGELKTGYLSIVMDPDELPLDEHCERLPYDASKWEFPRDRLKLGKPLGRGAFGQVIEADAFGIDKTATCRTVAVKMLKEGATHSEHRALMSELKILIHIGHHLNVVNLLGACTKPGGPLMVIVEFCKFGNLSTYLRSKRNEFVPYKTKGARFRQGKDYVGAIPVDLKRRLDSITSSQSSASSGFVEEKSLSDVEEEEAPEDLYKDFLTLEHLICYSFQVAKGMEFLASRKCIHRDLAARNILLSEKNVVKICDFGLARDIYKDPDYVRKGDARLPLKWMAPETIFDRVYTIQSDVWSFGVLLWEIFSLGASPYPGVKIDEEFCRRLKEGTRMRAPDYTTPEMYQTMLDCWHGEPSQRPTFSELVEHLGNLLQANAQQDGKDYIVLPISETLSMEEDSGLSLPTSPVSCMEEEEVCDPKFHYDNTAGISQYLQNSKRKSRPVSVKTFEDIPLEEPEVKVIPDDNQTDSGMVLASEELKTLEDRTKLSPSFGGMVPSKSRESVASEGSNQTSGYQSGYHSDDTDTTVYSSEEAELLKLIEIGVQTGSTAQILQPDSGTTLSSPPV

| SMILES | IC50 (HCT116) [µM] | IC50 (MCF-7) [µM] | IC50 (HepG2) [µM] | IC50 (A549) [µM] | IC50 (EGFR^T790M) [µM] | IC50 (VEGFR-2) [µM] |
| --- | --- | --- | --- | --- | --- | --- |
| O=C1NC(=O)C(=Cc2ccco2)S1 [Compound 3, 5-(furan-2-ylmethylene)thiazolidine-2,4-dione] | 58.2 |  |  |  |  |  |
| O=C(CN1C(=O)SC(=Cc2cccs2)C1=O)Nc1ccccc1 [Compound 4a, 2-[2,4-Dioxo-5-(thiophen-2-ylmethylene)thiazolidin-3-yl]-N-phenylacetamide] | 58.2 ± 0.7 | 63.6 ± 3.8 | 52.1 ± 5.2 | 51 ± 2.5 |  |  |
| O=C(CN1C(=O)SC(=Cc2cccs2)C1=O)Nc1ccc(Cl)cc1 [Compound 4b, N-(4-Chlorophenyl)-2-[2,4-dioxo-5-(thiophen-2-ylmethylene)thiazolidin-3-yl]acetamide] | 38.4 ± 3.9 | 36.9 ± 1.3 | 35.4 ± 5.1 | 36.1 ± 1.9 |  |  |
| O=C(CN1C(=O)SC(=Cc2cccs2)C1=O)Nc1ccc(F)cc1 [Compound 4c, 2-[2,4-Dioxo-5-(thiophen-2-ylmethylene)thiazolidin-3-yl]-N-(4-fluorophenyl)acetamide] | 42.5 ± 3.9 | 39 ± 1.3 | 34.2 ± 5.1 | 38.3 ± 1.9 |  |  |
| O=C(CN1C(=O)SC(=Cc2cccs2)C1=O)Nc1ccc(Br)cc1 [Compound 4d, N-(4-Bromophenyl)-2-[2,4-dioxo-5-(thiophen-2-ylmethylene)thiazolidin-3-yl]acetamide] | 16.6 ± 3.9 | 22.7 ± 3.9 | 13.5 ± 3.9 | 19 ± 3.9 | 0.42 | 0.255 |
| Cc1ccc(NC(=O)CN2C(=O)SC(=Cc3cccs3)C2=O)cc1 [Compound 4e, 2-[2,4-Dioxo-5-(thiophen-2-ylmethylene)thiazolidin-3-yl]-N-(p-tolyl)acetamide] | 21.3 ± 3.9 | 25.2 ± 3.9 | 24.5 ± 3.9 | 34 ± 3.9 |  |  |
| COc1ccc(NC(=O)CN2C(=O)SC(=Cc3cccs3)C2=O)cc1 [Compound 4f, 2-[2,4-Dioxo-5-(thiophen-2-ylmethylene)thiazolidin-3-yl]-N-(4-methoxyphenyl)acetamide] | 17.7 ± 3.9 | 22.3 ± 3.9 | 10.2 ± 3.9 | 22.7 ± 3.9 | 0.36 |  |
| O=C(CN1C(=O)SC(=Cc2cccs2)C1=O)Nc1ccc(C(=O)O)cc1 [Compound 4g, 4-{2-[2,4-Dioxo-5-(thiophen-2-ylmethylene)thiazolidin-3-yl]acetamido}benzoic acid] | 11.2 ± 3.9 | 10.7 ± 3.9 | 6.22 ± 3.9 | 12.9 ± 3.9 | 0.23 |  |
| O=C(CN1C(=O)SC(=Cc2ccco2)C1=O)Nc1ccccc1 [Compound 5a, 2-[5-(Furan-2-ylmethylene)-2,4-dioxothiazolidin-3-yl]-N-phenylacetamide] | 48.3 ± 0.7 | 59.6 ± 3.8 | 52.1 ± 5.2 | 53.2 ± 2.5 |  |  |
| O=C(CN1C(=O)SC(=Cc2ccco2)C1=O)Nc1ccc(Cl)cc1 [Compound 5b, N-(4-Chlorophenyl)-2-[5-(furan-2-ylmethylene)-2,4-dioxothiazolidin-3-yl]acetamide] | 28.2 ± 3.9 | 25.7 ± 3.9 | 23.8 ± 3.9 | 36.2 ± 3.9 |  |  |
| O=C(CN1C(=O)SC(=Cc2ccco2)C1=O)Nc1ccc(F)cc1 [Compound 5c, N-(4-Fluorophenyl)-2-[5-(furan-2-ylmethylene)-2,4-dioxothiazolidin-3-yl]acetamide] | 35.7 ± 3.9 | 28.6 ± 1.3 | 24.1 ± 2.5 | 35.4 ± 1.9 |  |  |
| Cc1ccc(NC(=O)CN2C(=O)SC(=Cc3ccco3)C2=O)cc1 [Compound 5d, 2-[5-(Furan-2-ylmethylene)-2,4-dioxothiazolidin-3-yl]-N-(p-tolyl)acetamide] | 26.4 ± 1.4 | 25.3 ± 4.5 | 23.6 ± 3.9 | 29.7 ± 4.1 |  | 0.276 |
| CC(C)c1ccc(NC(=O)CN2C(=O)SC(=Cc3ccco3)C2=O)cc1 [Compound 5e, 2-[5-(Furan-2-ylmethylene)-2,4-dioxothiazolidin-3-yl]-N-(4-isopropylphenyl)acetamide] | 10.7 ± 3.9 | 14.5 ± 3.9 | 23.8 ± 3.9 | 32.9 ± 3.9 | 0.41 | 0.263 |
| COc1ccc(NC(=O)CN2C(=O)SC(=Cc3ccco3)C2=O)cc1 [Compound 5f, 2-[5-(Furan-2-ylmethylene)-2,4-dioxothiazolidin-3-yl]-N-(4-methoxyphenyl)acetamide] | 15.7 ± 3.9 | 18.5 ± 3.9 | 11 ± 3.9 | 13 ± 3.9 | 0.35 | 0.247 |
| O=C(CN1C(=O)SC(=Cc2ccco2)C1=O)Nc1ccc(C(=O)O)cc1 [Compound 5g, 4-{2-[5-(Furan-2-ylmethylene)-2,4-dioxothiazolidin-3-yl]acetamido}benzoic acid] | 9.04 ± 3.9 | 10.7 ± 3.9 | 3.86 ± 3.9 | 7.55 ± 3.9 |  |  |
| CNC(=O)c1cc(Oc2ccc(NC(=O)Nc3ccc(Cl)c(C(F)(F)F)c3)cc2)ccn1 [Sorafenib, sorafenib, reference compound] |  |  | 4 ± 0.33 |  |  |  |
